# Biological target: cGMP-specific 3',5'-cyclic phosphodiesterase (Homo sapiens, UniProt O76074)
# Experiment: DRUGMATRIX: Phosphodiesterase PDE5 enzyme inhibition (substrate: [3H]cGMP + cGMP)
# Format: tissue-based, Platelet
# Details: platelet; Not Active = under 50% inhibition at 10 µM
row,Structure (SMILES),IC50
1,CN1[C@@H]2CC[C@H]1C[C@@H](OC(=O)c1c[nH]c3ccccc13)C2 [TROPISETRON],Not Active
2,COC(=O)c1ccc(O)cc1 [METHYLPARABEN],Not Active
3,c1ccc2[nH]c(-c3cscn3)nc2c1 [THIABENDAZOLE],Not Active
4,C[C@](N)(Cc1ccc(O)cc1)C(=O)O [METYROSINE],Not Active

# Test system: not listed separately
# Experiment: DRUGMATRIX: Platelet-Derived Growth Factor (PDGF) radioligand binding (ligand: [125I] PDGF)
# Format: cell-based
# Details: nih3t3; Not Active = under 50% inhibition at 10 µM
Structure (SMILES),IC50,Ki
CN1[C@@H]2CC[C@H]1C[C@@H](OC(=O)c1c[nH]c3ccccc13)C2 [TROPISETRON],Not Active,Not Active
COC(=O)c1ccc(O)cc1 [METHYLPARABEN],Not Active,Not Active
c1ccc2[nH]c(-c3cscn3)nc2c1 [THIABENDAZOLE],Not Active,Not Active
C[C@](N)(Cc1ccc(O)cc1)C(=O)O [METYROSINE],Not Active,Not Active

# Test system: not listed separately
# Experiment: DRUGMATRIX: Potassium Channel [KATP] radioligand binding (ligand: [3H] Glyburide)
# Format: cell membranes, Membrane
# Details: hit-t15; Not Active = under 50% inhibition at 10 µM
Structure (SMILES),IC50,Ki
CN1[C@@H]2CC[C@H]1C[C@@H](OC(=O)c1c[nH]c3ccccc13)C2 [TROPISETRON],Not Active,Not Active
COC(=O)c1ccc(O)cc1 [METHYLPARABEN],Not Active,Not Active
c1ccc2[nH]c(-c3cscn3)nc2c1 [THIABENDAZOLE],Not Active,Not Active
C[C@](N)(Cc1ccc(O)cc1)C(=O)O [METYROSINE],Not Active,Not Active

# Biological target: T1, Substance-K receptor (Homo sapiens, UniProt P21452); note: in other assays of this panel Not Active means under 50% inhibition at 10 µM
# T1 sequence (P21452 whole entry): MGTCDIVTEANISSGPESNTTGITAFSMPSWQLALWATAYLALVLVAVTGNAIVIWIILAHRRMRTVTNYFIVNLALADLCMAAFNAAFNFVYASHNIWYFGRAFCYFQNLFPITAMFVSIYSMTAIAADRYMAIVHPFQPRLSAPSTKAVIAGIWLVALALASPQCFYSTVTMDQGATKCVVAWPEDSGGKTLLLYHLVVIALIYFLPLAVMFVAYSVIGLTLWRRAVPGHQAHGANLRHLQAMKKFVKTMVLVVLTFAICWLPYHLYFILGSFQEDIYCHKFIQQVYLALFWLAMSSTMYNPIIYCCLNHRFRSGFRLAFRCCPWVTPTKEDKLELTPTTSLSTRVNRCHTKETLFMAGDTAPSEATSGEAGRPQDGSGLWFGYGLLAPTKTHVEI
# Format: cell membranes, CHO, Membrane
# Details: cho
row,Structure (SMILES),IC50
1,CN1[C@@H]2CC[C@H]1C[C@@H](OC(=O)c1c[nH]c3ccccc13)C2 [TROPISETRON],Not Active
2,COC(=O)c1ccc(O)cc1 [METHYLPARABEN],Not Active
3,c1ccc2[nH]c(-c3cscn3)nc2c1 [THIABENDAZOLE],Not Active
4,C[C@](N)(Cc1ccc(O)cc1)C(=O)O [METYROSINE],Not Active

# Biological target: T2, B2 bradykinin receptor (Homo sapiens, UniProt P30411); note: in other assays of this panel Not Active means under 50% inhibition at 10 µM
# T2 sequence (P30411 whole entry): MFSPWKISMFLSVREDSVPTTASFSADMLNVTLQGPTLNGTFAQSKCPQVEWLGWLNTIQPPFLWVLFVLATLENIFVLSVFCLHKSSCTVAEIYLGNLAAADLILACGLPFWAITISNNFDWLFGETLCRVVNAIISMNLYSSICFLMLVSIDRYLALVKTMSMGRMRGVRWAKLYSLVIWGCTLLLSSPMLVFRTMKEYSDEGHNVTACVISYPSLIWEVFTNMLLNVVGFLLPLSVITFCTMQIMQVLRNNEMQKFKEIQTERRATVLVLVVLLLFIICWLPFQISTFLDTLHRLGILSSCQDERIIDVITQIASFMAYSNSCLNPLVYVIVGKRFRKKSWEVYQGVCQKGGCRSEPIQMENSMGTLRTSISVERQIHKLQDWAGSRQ
# Format: cell membranes, Membrane
# Details: chem-1
row,Structure (SMILES),IC50
1,CN1[C@@H]2CC[C@H]1C[C@@H](OC(=O)c1c[nH]c3ccccc13)C2 [TROPISETRON],Not Active
2,COC(=O)c1ccc(O)cc1 [METHYLPARABEN],Not Active
3,c1ccc2[nH]c(-c3cscn3)nc2c1 [THIABENDAZOLE],Not Active
4,C[C@](N)(Cc1ccc(O)cc1)C(=O)O [METYROSINE],Not Active

# Biological target: Mitogen-activated protein kinase 3 (Homo sapiens, UniProt P27361)
# Sequence (P27361 whole entry): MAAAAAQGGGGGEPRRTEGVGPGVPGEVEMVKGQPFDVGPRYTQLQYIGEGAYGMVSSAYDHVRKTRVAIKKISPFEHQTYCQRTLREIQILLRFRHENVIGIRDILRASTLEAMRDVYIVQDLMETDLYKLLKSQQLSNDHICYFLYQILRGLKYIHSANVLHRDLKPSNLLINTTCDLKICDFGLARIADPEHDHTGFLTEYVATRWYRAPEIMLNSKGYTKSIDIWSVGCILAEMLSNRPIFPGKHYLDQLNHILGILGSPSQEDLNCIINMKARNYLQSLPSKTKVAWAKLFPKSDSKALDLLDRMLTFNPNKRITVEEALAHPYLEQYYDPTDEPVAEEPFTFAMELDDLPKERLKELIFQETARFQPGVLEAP
# Experiment: DRUGMATRIX: Protein Serine/Threonine Kinase, ERK1 enzyme inhibition (substrate: Myelin Basic Protein)
# Parameters: species or system Escherichia coli
# Details: Not Active = under 50% inhibition at 10 µM
row,Structure (SMILES),IC50
1,CN1[C@@H]2CC[C@H]1C[C@@H](OC(=O)c1c[nH]c3ccccc13)C2 [TROPISETRON],Not Active
2,COC(=O)c1ccc(O)cc1 [METHYLPARABEN],Not Active
3,c1ccc2[nH]c(-c3cscn3)nc2c1 [THIABENDAZOLE],Not Active
4,C[C@](N)(Cc1ccc(O)cc1)C(=O)O [METYROSINE],Not Active

# Biological target: T3, Alpha-2C adrenergic receptor (Homo sapiens, UniProt P18825)
# T3 sequence (P18825 whole entry): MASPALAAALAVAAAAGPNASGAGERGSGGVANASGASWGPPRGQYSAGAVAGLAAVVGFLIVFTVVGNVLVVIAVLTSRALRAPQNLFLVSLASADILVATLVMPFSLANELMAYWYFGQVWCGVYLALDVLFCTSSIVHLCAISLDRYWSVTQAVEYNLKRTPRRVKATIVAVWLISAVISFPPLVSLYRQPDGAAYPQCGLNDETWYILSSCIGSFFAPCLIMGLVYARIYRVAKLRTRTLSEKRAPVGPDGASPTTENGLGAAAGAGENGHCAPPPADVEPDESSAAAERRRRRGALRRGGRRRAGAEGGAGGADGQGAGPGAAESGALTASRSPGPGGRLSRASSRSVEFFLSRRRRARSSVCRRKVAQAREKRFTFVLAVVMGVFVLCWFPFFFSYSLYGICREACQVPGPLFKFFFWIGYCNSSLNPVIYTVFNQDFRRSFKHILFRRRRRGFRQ
# Experiment: DRUGMATRIX: Adrenergic Alpha-2C radioligand binding (ligand: [3H] MK-912)
# Format: cell membranes, Sf9, Membrane
# Details: sf9
row,Structure (SMILES),IC50
1,CN1[C@@H]2CC[C@H]1C[C@@H](OC(=O)c1c[nH]c3ccccc13)C2 [TROPISETRON],Not Active
2,COC(=O)c1ccc(O)cc1 [METHYLPARABEN],Not Active
3,c1ccc2[nH]c(-c3cscn3)nc2c1 [THIABENDAZOLE],Not Active
4,C[C@](N)(Cc1ccc(O)cc1)C(=O)O [METYROSINE],Not Active

# Biological target: Acetylcholinesterase (Homo sapiens, UniProt P22303)
# Sequence (P22303 whole entry): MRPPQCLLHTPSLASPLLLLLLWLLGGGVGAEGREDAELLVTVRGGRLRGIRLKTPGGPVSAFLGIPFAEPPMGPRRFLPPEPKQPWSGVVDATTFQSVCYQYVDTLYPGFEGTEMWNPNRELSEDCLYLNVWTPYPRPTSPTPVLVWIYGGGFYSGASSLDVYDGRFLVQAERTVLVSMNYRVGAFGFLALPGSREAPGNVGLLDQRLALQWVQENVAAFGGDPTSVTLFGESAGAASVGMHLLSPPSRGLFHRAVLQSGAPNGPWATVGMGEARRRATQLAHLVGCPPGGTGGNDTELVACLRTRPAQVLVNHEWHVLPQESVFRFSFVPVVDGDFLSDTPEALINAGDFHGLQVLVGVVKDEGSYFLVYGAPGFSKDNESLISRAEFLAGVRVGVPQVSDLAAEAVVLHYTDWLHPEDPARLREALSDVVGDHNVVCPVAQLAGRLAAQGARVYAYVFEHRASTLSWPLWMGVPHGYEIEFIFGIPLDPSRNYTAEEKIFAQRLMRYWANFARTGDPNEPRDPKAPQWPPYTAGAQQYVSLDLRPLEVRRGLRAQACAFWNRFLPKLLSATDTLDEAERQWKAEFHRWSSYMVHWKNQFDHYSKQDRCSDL
# Experiment: DRUGMATRIX: Acetylcholinesterase enzyme inhibition (substrate: acetylthiocholine)
# Format: cell-based, HEK293
# Details: hek293; Not Active = under 50% inhibition at 10 µM
row,Structure (SMILES),IC50
1,CN1[C@@H]2CC[C@H]1C[C@@H](OC(=O)c1c[nH]c3ccccc13)C2 [TROPISETRON],Not Active
2,COC(=O)c1ccc(O)cc1 [METHYLPARABEN],Not Active
3,c1ccc2[nH]c(-c3cscn3)nc2c1 [THIABENDAZOLE],Not Active
4,C[C@](N)(Cc1ccc(O)cc1)C(=O)O [METYROSINE],Not Active

# Biological target: T4, C-X-C chemokine receptor type 1 (Homo sapiens, UniProt P25024); note: in other assays of this panel Not Active means under 50% inhibition at 10 µM
# T4 sequence (P25024 whole entry): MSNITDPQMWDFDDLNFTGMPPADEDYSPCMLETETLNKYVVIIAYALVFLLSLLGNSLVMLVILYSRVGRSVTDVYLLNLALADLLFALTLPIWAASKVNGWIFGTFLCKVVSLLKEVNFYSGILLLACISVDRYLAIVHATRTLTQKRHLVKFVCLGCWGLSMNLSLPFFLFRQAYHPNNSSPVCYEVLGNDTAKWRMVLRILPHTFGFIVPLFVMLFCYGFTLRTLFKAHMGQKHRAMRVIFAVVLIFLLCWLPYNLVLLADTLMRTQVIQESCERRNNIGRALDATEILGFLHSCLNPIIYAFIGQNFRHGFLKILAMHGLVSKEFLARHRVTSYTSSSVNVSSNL
# Details: not given
row,Structure (SMILES),IC50
1,CN1[C@@H]2CC[C@H]1C[C@@H](OC(=O)c1c[nH]c3ccccc13)C2 [TROPISETRON],Not Active
2,COC(=O)c1ccc(O)cc1 [METHYLPARABEN],Not Active
3,c1ccc2[nH]c(-c3cscn3)nc2c1 [THIABENDAZOLE],Not Active
4,C[C@](N)(Cc1ccc(O)cc1)C(=O)O [METYROSINE],Not Active

# Biological target: Cannabinoid receptor 1 (Homo sapiens, UniProt P21554); note: in other assays of this panel Not Active means under 50% inhibition at 10 µM
# Sequence (P21554 whole entry): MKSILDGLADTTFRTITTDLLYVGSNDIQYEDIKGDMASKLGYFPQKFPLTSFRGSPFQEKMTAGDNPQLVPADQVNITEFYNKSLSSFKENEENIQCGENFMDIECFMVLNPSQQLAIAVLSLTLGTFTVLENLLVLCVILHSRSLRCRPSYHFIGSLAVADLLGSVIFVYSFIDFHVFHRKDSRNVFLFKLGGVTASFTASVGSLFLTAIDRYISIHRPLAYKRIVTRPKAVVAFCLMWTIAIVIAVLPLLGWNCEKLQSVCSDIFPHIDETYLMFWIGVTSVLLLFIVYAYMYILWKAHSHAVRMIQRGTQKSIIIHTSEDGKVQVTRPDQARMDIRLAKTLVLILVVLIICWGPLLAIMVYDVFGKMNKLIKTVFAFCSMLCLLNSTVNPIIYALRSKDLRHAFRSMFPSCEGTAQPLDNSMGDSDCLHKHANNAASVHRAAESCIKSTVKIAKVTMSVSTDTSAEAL
# Format: cell membranes, Membrane
# Details: chem-1
row,Structure (SMILES),IC50
1,CN1[C@@H]2CC[C@H]1C[C@@H](OC(=O)c1c[nH]c3ccccc13)C2 [TROPISETRON],Not Active
2,COC(=O)c1ccc(O)cc1 [METHYLPARABEN],Not Active
3,c1ccc2[nH]c(-c3cscn3)nc2c1 [THIABENDAZOLE],Not Active
4,C[C@](N)(Cc1ccc(O)cc1)C(=O)O [METYROSINE],Not Active

# Biological target: Adenosine receptor A2a (Homo sapiens, UniProt P29274)
# Sequence (P29274 whole entry): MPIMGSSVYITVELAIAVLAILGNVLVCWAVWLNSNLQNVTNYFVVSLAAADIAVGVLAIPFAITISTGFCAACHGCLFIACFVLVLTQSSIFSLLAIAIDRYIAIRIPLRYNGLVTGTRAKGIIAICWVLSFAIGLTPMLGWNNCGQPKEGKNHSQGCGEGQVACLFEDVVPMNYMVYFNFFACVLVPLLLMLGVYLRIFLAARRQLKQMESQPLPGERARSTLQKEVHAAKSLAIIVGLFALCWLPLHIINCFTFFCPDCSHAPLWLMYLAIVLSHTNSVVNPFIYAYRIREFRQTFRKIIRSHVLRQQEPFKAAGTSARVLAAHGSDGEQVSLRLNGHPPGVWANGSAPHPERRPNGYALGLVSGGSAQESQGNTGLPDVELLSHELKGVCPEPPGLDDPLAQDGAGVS
# Experiment: DRUGMATRIX: Adenosine A2A radioligand binding (ligand: […])
# Format: cell membranes, HEK293, Membrane
# Details: hek293; Not Active = under 50% inhibition at 10 µM
row,Structure (SMILES),IC50
1,CN1[C@@H]2CC[C@H]1C[C@@H](OC(=O)c1c[nH]c3ccccc13)C2 [TROPISETRON],Not Active
2,COC(=O)c1ccc(O)cc1 [METHYLPARABEN],Not Active
3,c1ccc2[nH]c(-c3cscn3)nc2c1 [THIABENDAZOLE],Not Active
4,C[C@](N)(Cc1ccc(O)cc1)C(=O)O [METYROSINE],Not Active

# Test system: not listed separately
# Experiment: DRUGMATRIX: GABAA, Chloride Channel, TBOB radioligand binding (ligand: [3H] TBOB)
# Format: cell membranes, Rattus norvegicus, Wistar, Cerebral cortex, Membrane
# Details: Not Active = under 50% inhibition at 10 µM
Structure (SMILES),IC50,Ki
CN1[C@@H]2CC[C@H]1C[C@@H](OC(=O)c1c[nH]c3ccccc13)C2 [TROPISETRON],Not Active,Not Active
COC(=O)c1ccc(O)cc1 [METHYLPARABEN],Not Active,Not Active
c1ccc2[nH]c(-c3cscn3)nc2c1 [THIABENDAZOLE],Not Active,Not Active
C[C@](N)(Cc1ccc(O)cc1)C(=O)O [METYROSINE],Not Active,Not Active

# Biological target: Protein phosphatase 3 catalytic subunit alpha (Homo sapiens, UniProt Q08209)
# Parameters: species or system Escherichia coli
# Details: not given
row,Structure (SMILES),IC50
1,CN1[C@@H]2CC[C@H]1C[C@@H](OC(=O)c1c[nH]c3ccccc13)C2 [TROPISETRON],Not Active
2,COC(=O)c1ccc(O)cc1 [METHYLPARABEN],Not Active
3,c1ccc2[nH]c(-c3cscn3)nc2c1 [THIABENDAZOLE],Not Active
4,C[C@](N)(Cc1ccc(O)cc1)C(=O)O [METYROSINE],Not Active

# Biological target: Nitric oxide synthase 1 (Rattus norvegicus, UniProt P29476); note: in other assays of this panel Not Active means under 50% inhibition at 10 µM
# Sequence (P29476 whole entry): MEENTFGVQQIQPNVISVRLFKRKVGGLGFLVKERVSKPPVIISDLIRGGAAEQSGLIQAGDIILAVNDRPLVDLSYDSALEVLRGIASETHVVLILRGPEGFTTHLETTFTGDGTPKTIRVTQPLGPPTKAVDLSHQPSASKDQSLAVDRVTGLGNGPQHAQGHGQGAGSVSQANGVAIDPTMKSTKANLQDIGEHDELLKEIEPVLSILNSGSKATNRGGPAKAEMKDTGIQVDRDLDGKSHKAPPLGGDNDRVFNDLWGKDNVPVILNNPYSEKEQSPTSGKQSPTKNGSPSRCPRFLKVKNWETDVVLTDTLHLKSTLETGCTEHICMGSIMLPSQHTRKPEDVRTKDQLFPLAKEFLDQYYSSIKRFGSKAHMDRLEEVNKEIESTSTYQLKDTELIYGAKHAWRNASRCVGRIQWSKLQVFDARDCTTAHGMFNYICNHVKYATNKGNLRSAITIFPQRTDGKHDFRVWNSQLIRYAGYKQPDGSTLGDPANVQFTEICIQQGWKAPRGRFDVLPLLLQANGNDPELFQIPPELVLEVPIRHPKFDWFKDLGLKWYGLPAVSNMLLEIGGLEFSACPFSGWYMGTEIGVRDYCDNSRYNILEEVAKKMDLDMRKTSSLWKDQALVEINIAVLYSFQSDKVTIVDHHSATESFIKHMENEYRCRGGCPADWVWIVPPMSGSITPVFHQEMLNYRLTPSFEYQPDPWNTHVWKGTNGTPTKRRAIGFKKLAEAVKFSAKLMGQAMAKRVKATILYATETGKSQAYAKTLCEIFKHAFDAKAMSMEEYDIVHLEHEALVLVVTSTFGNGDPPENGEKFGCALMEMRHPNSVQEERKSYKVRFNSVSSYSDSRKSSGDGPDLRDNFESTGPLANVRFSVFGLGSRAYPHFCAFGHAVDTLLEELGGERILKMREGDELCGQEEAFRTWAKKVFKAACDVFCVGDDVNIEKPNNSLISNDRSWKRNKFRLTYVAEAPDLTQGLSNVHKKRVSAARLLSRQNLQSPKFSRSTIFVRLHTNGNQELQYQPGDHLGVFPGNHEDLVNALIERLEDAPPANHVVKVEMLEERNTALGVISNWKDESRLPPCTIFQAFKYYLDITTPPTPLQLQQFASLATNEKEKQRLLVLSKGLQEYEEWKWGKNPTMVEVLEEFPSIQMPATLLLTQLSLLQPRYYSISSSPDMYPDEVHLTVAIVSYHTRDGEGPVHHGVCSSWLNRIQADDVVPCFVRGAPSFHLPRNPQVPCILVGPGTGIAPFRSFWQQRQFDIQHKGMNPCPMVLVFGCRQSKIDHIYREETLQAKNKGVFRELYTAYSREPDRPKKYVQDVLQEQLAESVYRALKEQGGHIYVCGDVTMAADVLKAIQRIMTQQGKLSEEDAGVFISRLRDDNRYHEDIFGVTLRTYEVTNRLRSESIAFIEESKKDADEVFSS
# Format: tissue-based, Cerebellum
# Details: not given
row,Structure (SMILES),IC50
1,CN1[C@@H]2CC[C@H]1C[C@@H](OC(=O)c1c[nH]c3ccccc13)C2 [TROPISETRON],Not Active
2,COC(=O)c1ccc(O)cc1 [METHYLPARABEN],Not Active
3,c1ccc2[nH]c(-c3cscn3)nc2c1 [THIABENDAZOLE],Not Active
4,C[C@](N)(Cc1ccc(O)cc1)C(=O)O [METYROSINE],Not Active

# Source: ChEMBL document CHEMBL1909046, “DrugMatrix in vitro pharmacology data”
